In the Bradley open melting point set (2014):

With `C[C@H]1c2cccc(O)c2C(=O)C2=C(O)[C@]3(O)C(=O)C(C(N)=O)=C(O)[C@@H](N(C)C)[C@@H]3[C@@H](O)[C@@H]21` [Doxycycline] the melting point was 201 °C. `CNC[C@H](O)c1ccc(O)c(O)c1` [Epinephrine] showed a melting point of 212 °C. Work on `C[C@]12CC[C@@H]3c4ccc(O)cc4CC[C@H]3[C@@H]1CC[C@@H]2O` [Estradiol] yielded a melting point of 176 °C. Compound `CC(N)=S` [Ethanethioamide] has a melting point of 115 °C. In the case of `C#C[C@]1(O)CC[C@H]2[C@@H]3CCc4cc(O)ccc4[C@H]3CC[C@@]21C` [Ethinyl Estradiol], the melting point is reported as 183 °C. In the case of `CCOC(=O)C(C#N)=Cc1ccc(Cl)cc1` [Ethyl 3-(4-chlorophenyl)-2-cyanoacrylate], the melting point is reported as 138 °C. `CCOC(=O)CC(C)=O` [Ethyl 3-oxobutanoate] showed a melting point of -43 °C. Compound `CCOC(=O)c1ccc(N)cc1` [Ethyl 4-aminobenzoate] has a melting point of 89 °C. In the case of `CCOC(=O)C1=CC(C)N=N1` (stereo unspecified) [Ethyl 5-methyl-1H-pyrazole-3-carboxylate], the melting point is reported as 82 °C. In the case of `CCOC(=O)/C=C/c1ccccc1N` [Ethyl (2E)-3-(2-aminophenyl)acrylate], the melting point is reported as 77 °C. Work on `CCOC(=O)/C(C#N)=C\c1ccc(-c2ccc(C)cc2)o1` [Ethyl (2Z)-2-cyano-3-[5-(4-methylphenyl)-2-furyl]acrylate] yielded a melting point of 124 °C. For `CCOC(=O)/C(C#N)=N\Nc1ccc(Cl)cc1` [Ethyl (2Z)-[(4-chlorophenyl)hydrazono](cyano)acetate], the melting point was 162 °C. Work on `CCOC(=O)/C(C#N)=N\Nc1cccc([N+](=O)[O-])c1` [Ethyl (2Z)-cyano[(3-nitrophenyl)hydrazono]acetate] yielded a melting point of 156 °C. `CCOC(=O)Nc1ccc(C)cc1[N+](=O)[O-]` [Ethyl (4-methyl-2-nitrophenyl)carbamate] showed a melting point of 65 °C. For `CCCC(=O)OCC` [Ethyl butyrate], the melting point was -93 °C. With `CCOC(N)=O` [Ethyl carbamate] the melting point was 49 °C. In the case of `COc1cc(C(=O)O)cc(OC)c1OC` [Eudesmic acid], the melting point is reported as 172 °C. For `C=C1C[C@@H]2[C@H](CC[C@]3(C)C(=O)CC[C@@H]23)[C@@]2(C)C=CC(=O)C=C12` [Exemestane], the melting point was 155 °C. In the case of `CC(=O)OCC(CCn1cnc2cnc(N)nc21)COC(C)=O` [Famciclovir], the melting point is reported as 103 °C. `N/C(N)=N/c1nc(CSCCC(N)=N/S(N)(=O)=O)cs1` [Famotidine] gave a melting point of 164 °C. `NC(=O)OCC(COC(N)=O)c1ccccc1` [Felbamate] showed a melting point of 152 °C. With `COP(=S)(OC)Oc1cc(Cl)c(Cl)cc1Cl` [Fenchlorphos] the melting point was 38 °C. `O=c1[nH]c(=O)n([C@H]2C[C@H](O)[C@@H](CO)O2)cc1F` [Floxuridine] showed a melting point of 150 °C. Work on `O=C(O)c1ccccc1Nc1cccc(C(F)(F)F)c1` [Flufenamic Acid] [listing 1 of 2 here] yielded a melting point of 125 °C. With `O=C(O)c1ccccc1Nc1cccc(C(F)(F)F)c1` [Flufenamic Acid] [listing 2 of 2 here] the melting point was 134 °C. Compound `Fc1ccccc1` [Fluorobenzene] has a melting point of -40 °C. `O=c1[nH]cc(F)c(=O)[nH]1` [Fluorouracil] gave a melting point of 281 °C. `CC(C(=O)O)c1ccc(-c2ccccc2)c(F)c1` (stereo unspecified) [Flurbiprofen] gave a melting point of 114 °C. For `CCC(=O)O[C@]1(C(=O)SCF)[C@H](C)C[C@H]2[C@@H]3C[C@H](F)C4=CC(=O)C=C[C@]4(C)[C@@]3(F)[C@@H](O)C[C@@]21C` [Fluticasone Propionate], the melting point was 272 °C. `Nc1nc(=O)c2nc(CNc3ccc(C(=O)N[C@@H](CCC(=O)O)C(=O)O)cc3)cnc2[nH]1` [Folic Acid] showed a melting point of 250 °C. `Nc1nc(=O)c2ncn(COC(CO)CO)c2[nH]1` [Ganciclovir] gave a melting point of 250 °C. In the case of `N[C@@H](CCC(=O)N[C@@H](CS)C(=O)NCC(=O)O)C(=O)O` [Glutathione], the melting point is reported as 194 °C. For `NCC(=O)O` [Glycine], the melting point was 240 °C. Compound `COc1cc(OC)c2c(c1Cl)O[C@]1(C2=O)C(OC)CC(=O)C[C@H]1C` (stereo partly specified) [Griseofulvin] has a melting point of 220 °C. Work on `COC1=CC(=O)C[C@@H](C)[C@]12Oc1c(Cl)c(OC)cc(OC)c1C2=O` [Griseofulvin] yielded a melting point of 220 °C. `O=C(CCCN1CCC(O)(c2ccc(Cl)cc2)CC1)c1ccc(F)cc1` [Haloperidol] showed a melting point of 148 °C. With `ClC1=C(Cl)C2(Cl)C3C4OC4C(Cl)C3C1(Cl)C2(Cl)Cl` (stereo unspecified) [Heptachlor epoxide] the melting point was 160 °C. With `CCCC(=O)CCC` [Heptan-4-one] the melting point was -33 °C. Work on `Brc1c(Br)c(Br)c(Br)c(Br)c1Br` [Hexabromobenzene] yielded a melting point of 306 °C. For `O=C(O)CCCCCCCCCCCCCCC(=O)O` [Hexadecanedioic acid], the melting point was 125 °C. `CCCCCCN` [Hexan-1-amine] gave a melting point of -23 °C. `OCCCCCCO` [Hexane-1,6-Diol] showed a melting point of 45 °C. Compound `NS(=O)(=O)c1cc2c(cc1Cl)NCNS2(=O)=O` [Hydrochlorothiazide] has a melting point of 274 °C. For `CCOC(=O)Cc1c(C)n(C(=O)c2ccc(Cl)cc2)c2ccc(OC)cc12` [Indomethacin ethyl ester], the melting point was 96 °C. For `II` [Iodine], the melting point was 114 °C. Work on `CN=C=O` [Isocyanatomethane] yielded a melting point of -80 °C. In the case of `CC(COc1ccccc1)NC(C)C(O)c1ccc(O)cc1` (stereo unspecified) [Isolait], the melting point is reported as 103 °C. `CN=C=S` [Isothiocyanatomethane] gave a melting point of 35 °C. Compound `CC(C(=O)O)c1cccc(C(=O)c2ccccc2)c1` (stereo unspecified) [Ketoprofen] has a melting point of 93 °C. Compound `NC(=O)C[C@H](N)C(=O)O` [L-Asparagine] has a melting point of 235 °C. Work on `N[C@@H](CC(=O)O)C(=O)O` [L-Aspartic Acid] yielded a melting point of 230 °C.
